Measured values: patent publication US20220280476A1, “KCNT1 INHIBITORS AND METHODS OF USE” (Praxis Precision Medicines, Inc., priority 2019, published 2022)

Target: T1, KCNT1 (KNa1.1, Slack) (Homo sapiens, UniProt Q5JUK3)
T1 construct: expressed in transfected cells; host or cells: HEK-TREX (tetracycline-inducible HEK cell line)
T1 sequence (Q5JUK3 1-1230): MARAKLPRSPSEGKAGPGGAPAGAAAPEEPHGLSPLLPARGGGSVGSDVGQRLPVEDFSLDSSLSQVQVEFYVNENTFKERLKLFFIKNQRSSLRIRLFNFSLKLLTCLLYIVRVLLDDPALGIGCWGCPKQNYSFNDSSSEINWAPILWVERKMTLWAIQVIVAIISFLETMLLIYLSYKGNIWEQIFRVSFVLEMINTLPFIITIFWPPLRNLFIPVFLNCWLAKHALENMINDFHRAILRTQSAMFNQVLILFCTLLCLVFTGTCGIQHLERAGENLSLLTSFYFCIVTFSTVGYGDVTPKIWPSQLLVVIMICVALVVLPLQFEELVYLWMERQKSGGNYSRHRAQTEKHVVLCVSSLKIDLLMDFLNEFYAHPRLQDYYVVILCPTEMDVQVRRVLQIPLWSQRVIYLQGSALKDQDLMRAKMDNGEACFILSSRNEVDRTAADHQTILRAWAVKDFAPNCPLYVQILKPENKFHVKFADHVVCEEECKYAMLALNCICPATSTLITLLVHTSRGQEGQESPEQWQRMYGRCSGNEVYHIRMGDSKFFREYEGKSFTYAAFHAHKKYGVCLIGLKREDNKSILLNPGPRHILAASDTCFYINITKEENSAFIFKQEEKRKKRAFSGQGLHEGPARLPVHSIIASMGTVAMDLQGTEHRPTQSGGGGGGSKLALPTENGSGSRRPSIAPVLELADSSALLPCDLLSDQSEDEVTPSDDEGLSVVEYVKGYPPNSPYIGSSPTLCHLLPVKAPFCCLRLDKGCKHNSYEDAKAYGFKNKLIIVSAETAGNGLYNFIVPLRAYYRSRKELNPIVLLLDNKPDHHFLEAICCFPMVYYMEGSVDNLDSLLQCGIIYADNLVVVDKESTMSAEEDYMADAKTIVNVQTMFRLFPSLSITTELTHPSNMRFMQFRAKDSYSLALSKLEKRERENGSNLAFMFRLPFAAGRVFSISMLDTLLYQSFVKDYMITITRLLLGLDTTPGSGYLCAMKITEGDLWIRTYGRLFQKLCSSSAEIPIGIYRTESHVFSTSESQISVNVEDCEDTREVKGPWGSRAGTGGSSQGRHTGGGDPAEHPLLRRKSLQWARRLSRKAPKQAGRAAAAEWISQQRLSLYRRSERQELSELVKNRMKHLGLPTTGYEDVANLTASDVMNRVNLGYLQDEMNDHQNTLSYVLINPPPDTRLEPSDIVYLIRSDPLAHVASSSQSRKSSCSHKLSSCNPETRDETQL
Assay: KCNT1-WT-Basal patch clamp assay (SyncroPatch 384PE, HEK-TREX inducible cell line)
Type: cell-based
Conditions: tetracycline inducible HEK-TREX cells; perforated patch; holding -80 mV, 100 ms step to 0 mV; room temperature; read-out: KCNT1 WB IC50
Description: KCNT1-WT-Basal—Patch Clamp Assay
Inhibition of KCNT1 (KNa1.1, Slack) was evaluated using a tetracycline inducible cell line (HEK-TREX). Currents were recorded using the SyncroPatch 384PE automated, patch clamp system. Pulse generation and data collection were performed with PatchController384 V1.3.0 and DataController384 V1.2.1 (Nanion Technologies). The access resistance and apparent membrane capacitance were estimated using built-in protocols. Current were recorded in perforated patch mode (10 μM escin) from a population of cells. The cells were lifted, triturated, and resuspended at 800,000 cells/ml. The cells were allowed to recover in the cell hotel prior to experimentation. Currents were recorded at room temperature. The external solution contained the following (in mM): NaCl 105, NMDG 40, KCl 4, MgCl2 1, CaCl2 5 and HEPES 10 (pH=7.4, Osmolarity ˜300 mOsm). The extracellular solution was used as the wash, reference and compound delivery solution. The internal solution contained the following (in mM): NaCl 70, KF 70, KCl 10, EGTA 5, HEPES 5 and Escin 0.01 (pH=7.2, Osmolarity ˜295 mOsm). Escin is made at a 5 mM stock in water, aliquoted, and stored at −20° C. The compound plate was created at 2× concentrated in the extracellular solution. The compound was diluted to 1:2 when added to the recording well. The amount of DMSO in the extracellular solution was held constant at the level used for the highest tested concentration. A holding potential of −80 mV with a 100 ms step to 0 mV was used. Mean current was measured during the step to 0 mV. […] The average mean current from 3 sweeps was calculated and the % inhibition of each compound was calculated. The % Inhibition as a function of the compound concentration was fit with a Hill equation to derive IC50, slope, min and max parameters. If KCNT1 inhibition was less than 50% at the highest tested concentration or if an IC50 could not be calculated, then a percent inhibition was reported in place of the IC50.

Compound	IC50 [µM]
NS(=O)(=O)c1c[nH]c(C(=O)N[C@@H]2CCc3cc(Cl)ccc32)c1 [Compound I-14]	≥ 20
CN(C)S(=O)(=O)c1ccc(C(=O)N[C@@H]2CCc3cc(Cl)ccc32)s1 [Compound I-15]	≤ 1
CNS(=O)(=O)c1ccc(C(=O)N[C@@H]2CCc3cc(Cl)ccc32)s1 [Compound I-16]	≤ 1
O=C(N[C@@H]1CCc2cc(Cl)ccc21)c1ccc(S(=O)(=O)N2CCCC2)s1 [Compound I-17]	≤ 1
CS(=O)(=O)c1ccc(C(=O)N[C@@H]2CCc3cc(Cl)ccc32)s1 [Compound I-18]	≤ 1
O=C(N[C@@H]1CCc2cc(Cl)ccc21)c1ccc(S(=O)(=O)N2CCC2)s1 [Compound I-19]	≤ 1
NC(=O)c1ccc(C(=O)N[C@@H]2CCc3cc(Cl)ccc32)s1 [Compound I-20]	≤ 1
O=C(N[C@@H]1CCc2cc(Cl)ccc21)c1ccc(S(=O)(=O)C2CC2)s1 [Compound I-21]	≤ 1
Cn1nc(C(F)(F)F)cc1C(=O)N[C@@H]1CCc2cc(Cl)ccc21 [Compound I-26]	≤ 1
CS(=O)(=O)c1ncc(C(=O)N[C@@H]2CCc3cc(Cl)ccc32)s1 [Compound I-27]	≤ 1
CNC(=O)c1ccc(C(=O)N[C@@H]2CCc3cc(Cl)ccc32)s1 [Compound I-28]	≤ 1
CN(C)C(=O)c1ccc(C(=O)N[C@@H]2CCc3cc(Cl)ccc32)s1 [Compound I-29]	≤ 1
CCS(=O)(=O)c1ccc(C(=O)N[C@@H]2CCc3cc(Cl)ccc32)s1 [Compound I-34]	≤ 1
COCc1ccc(C(=O)N[C@@H]2CCc3cc(Cl)ccc32)s1 [Compound I-36]	≤ 1
O=C(N[C@@H]1CCc2cc(Cl)ccc21)c1cnc(Cl)s1 [Compound I-37]	≤ 1
CN(C)Cc1ccc(C(=O)N[C@@H]2CCc3cc(Cl)ccc32)s1 [Compound I-38]	1 to 20
CC(=O)N(C)Cc1ccc(C(=O)N[C@@H]2CCc3cc(Cl)ccc32)s1 [Compound I-39]	≤ 1
O=C(N[C@@H]1CCc2cc(Cl)ccc21)c1ccc(S(=O)(=O)N2CC[C@@H](O)C2)s1 [Compound I-40]	≤ 1
O=C(N[C@@H]1CCc2cc(Cl)ccc21)c1ccc(S(=O)(=O)N2CC[C@H](O)C2)s1 [Compound I-41]	≤ 1
CN1CCN(S(=O)(=O)c2ccc(C(=O)N[C@@H]3CCc4cc(Cl)ccc43)s2)CC1 [Compound I-42]	≤ 1
CO[C@H]1CCN(S(=O)(=O)c2ccc(C(=O)N[C@@H]3CCc4cc(Cl)ccc43)s2)C1 [Compound I-43]	≤ 1
CC(=O)NCc1ccc(C(=O)N[C@@H]2CCc3cc(Cl)ccc32)s1 [Compound I-44]	≤ 1
O=C(N[C@@H]1CCc2cc(Cl)ccc21)c1ccc(S(=O)(=O)N2CCOCC2)s1 [Compound I-45]	≤ 1
CO[C@@H]1CCN(S(=O)(=O)c2ccc(C(=O)N[C@@H]3CCc4cc(Cl)ccc43)s2)C1 [Compound I-46]	≤ 1
COCCS(=O)(=O)c1ccc(C(=O)N[C@@H]2CCc3cc(Cl)ccc32)s1 [Compound I-47]	≤ 1

Compound	IC50 [µM]
CS(=O)(=O)Nc1ccc(C(=O)N[C@H]2CCc3cc(Cl)ccc32)cc1 [Compound II-3]	≥ 20
CS(=O)(=O)Nc1ccc(C(=O)N[C@@H]2CCc3cc(Cl)ccc32)cc1 [Compound II-4, N-[(1R)-5-chloroindan-1-yl]-4-(methanesulfonamido)benzamide]	≤ 1
Nc1ccc(C(=O)N[C@@H]2CCc3cc(Cl)ccc32)cc1 [Compound II-9, 4-amino-N-[(1R)-5-chloroindan-1-yl]benzamide]	1 to 20
CCS(=O)(=O)Nc1ccc(C(=O)N[C@@H]2CCc3cc(Cl)ccc32)cc1 [Compound II-10, N-[(1R)-5-chloroindan-1-yl]-4-(ethylsulfonylamino)benzamide]	≤ 1
O=C(N[C@@H]1CCc2cc(Cl)ccc21)c1ccc(NS(=O)(=O)C2CC2)cc1 [Compound II-11, N-[(1R)-5-chloroindan-1-yl]-4-(cyclopropylsulfonylamino)benzamide]	1 to 20
O=C(N[C@@H]1CCc2cc(Cl)ccc21)c1ccc(NS(=O)(=O)C(F)(F)F)cc1 [Compound II-12]	≥ 20
CCS(=O)(=O)N(C)c1ccc(C(=O)N[C@@H]2CCc3cc(Cl)ccc32)cc1 [Compound II-13]	≤ 1
CN(c1ccc(C(=O)N[C@@H]2CCc3cc(Cl)ccc32)cc1)S(=O)(=O)C1CC1 [Compound II-14]	≤ 1
CCS(=O)(=O)Nc1ccc(C(=O)N[C@H]2CCc3cc(Cl)ccc32)cc1 [Compound II-17, N-[(1S)-5-chloroindan-1-yl]-4-(ethylsulfonylamino)benzamide]	≥ 20
O=C(N[C@H]1CCc2cc(Cl)ccc21)c1ccc(NS(=O)(=O)C2CC2)cc1 [Compound II-18, N-[(1S)-5-chloroindan-1-yl]-4-(cyclopropylsulfonylamino)benzamide]	> 20
CCS(=O)(=O)N(C)c1ccc(C(=O)N[C@H]2CCc3cc(Cl)ccc32)cc1 [Compound II-19]	1 to 20
CN(c1ccc(C(=O)N[C@H]2CCc3cc(Cl)ccc32)cc1)S(=O)(=O)C1CC1 [Compound II-20]	1 to 20
CN(c1ccc(C(=O)N[C@H]2CCc3cc(Cl)ccc32)cc1)S(=O)(=O)C(F)(F)F [Compound II-21]	1 to 20
CS(=O)(=O)c1ccc(C(=O)N[C@@H]2CCc3cc(Cl)ccc32)cc1 [Compound II-22]	≤ 1
CN(C)C(=O)c1ccc(C(=O)N[C@@H]2CCc3cc(Cl)ccc32)cc1 [Compound II-23]	1 to 20
CNC(=O)c1ccc(C(=O)N[C@@H]2CCc3cc(Cl)ccc32)cc1 [Compound II-24]	1 to 20
NS(=O)(=O)c1ccc(C(=O)N[C@@H]2CCc3cc(Cl)ccc32)cc1 [Compound II-25]	≤ 1
NC(=O)c1ccc(C(=O)N[C@@H]2CCc3cc(Cl)ccc32)cc1 [Compound II-26]	1 to 20
CNS(=O)(=O)c1ccc(C(=O)N[C@@H]2CCc3cc(Cl)ccc32)cc1 [Compound II-27]	≤ 1
CN(C)S(=O)(=O)c1ccc(C(=O)N[C@@H]2CCc3cc(Cl)ccc32)cc1 [Compound II-28]	≤ 1
O=C(N[C@H]1CCc2cc(Cl)ccc21)c1ccc(NS(=O)(=O)C(F)(F)F)cc1 [Compound II-29, N-[(1S)-5-chloroindan-1-yl]-4-(trifluoromethylsulfonylamino)benzamide]	≥ 20
CCS(=O)(=O)c1ccc(C(=O)N[C@@H]2CCc3cc(Cl)ccc32)cc1 [Compound II-30]	≤ 1
CNS(=O)(=O)Nc1ccc(C(=O)N[C@@H]2CCc3cc(Cl)ccc32)cc1 [Compound II-32]	≤ 1
Cc1cc(S(C)(=O)=O)ccc1C(=O)N[C@@H]1CCc2cc(Cl)ccc21 [Compound II-33]	≥ 20
CN(C)S(=O)(=O)Nc1ccc(C(=O)N[C@@H]2CCc3cc(Cl)ccc32)cc1 [Compound II-34]	1 to 20
